Source: patent EP3552605A1 (priority 2018, dated 2019)
“Also recorded” adds a separate entry of the source. Like-named read-outs stand apart in the source and are kept apart here.

Assays:
[1] = tolerance of long term application in vivo; set-up: species or system mice (C57B1/6 strain); settings: five weeks, regime 5 + 2, female mice aged 42 weeks
Description: Female mice (C57B1/6 strain) at the age of 42 weeks were treated by intraperitoneal application of MCOPPB (10 mg/kg and 20 mg/kg) dissolved in phosphate buffer or by the buffer alone (vehicle) for five weeks in the regime 5 + 2 (5 days with the treatment, two days without) and followed for another two weeks. The weight and another physiological factors reflecting overall fitness were monitored.

[2] = cited from earlier work
kappa opioid receptor = kappa opioid receptor (Homo sapiens, UniProt P41145); settings: cited from earlier work
kappa opioid receptor, sequence (P41145 whole entry): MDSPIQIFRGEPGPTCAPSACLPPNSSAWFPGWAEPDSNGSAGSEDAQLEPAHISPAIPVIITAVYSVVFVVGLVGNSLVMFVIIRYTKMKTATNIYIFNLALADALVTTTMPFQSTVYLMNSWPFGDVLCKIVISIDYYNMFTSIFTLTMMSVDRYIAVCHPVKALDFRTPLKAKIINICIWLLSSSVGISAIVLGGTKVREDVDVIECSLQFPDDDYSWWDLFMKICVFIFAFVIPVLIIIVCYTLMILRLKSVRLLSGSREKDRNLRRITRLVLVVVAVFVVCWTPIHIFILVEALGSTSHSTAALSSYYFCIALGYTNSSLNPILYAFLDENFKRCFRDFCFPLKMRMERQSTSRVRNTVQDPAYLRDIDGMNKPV

[3] = tested on: parental (normal healthy) ARPE-1 cells; assay: toxicity towards parental ARPE-1 cells (GIEMSA staining, microscopy); assay type: cell-based, human; settings: 10 µM, 48 hours; Figure 1
Description: (§1) hTERT RPE-1 human retinal epithelial cell line was obtained from ATTC. Cells were grown in DMEM medium (Sigma Aldrich) supplemented with 10% fetal bovine serum (FBS) and antibiotics (penicillin-streptomycin). MRC-5 human lung fibroblast cell line was obtained from ATTC. Cells were grown in DMEM (Sigma Aldrich) supplemented with 10% FBS and antibiotics (penicillin-streptomycin).
(§2) In human ARPE-1 human epithelial cells, senescence response - manifested by loss of proliferation, typical morphological changes and Senescence Associated Beta-galactosidase positivity - was induced by exposition to replication stress for prolonged time period. The induction involved 200nM aphidicolin continual treatment for three weeks. The senescent cells have been exposed to various doses of MCOPPB dissolved in water for 48 hours, the dose range spanned 100 nM - 50 µM. The number of surviving cells was evaluated immediately after the treatment either using GIMSA staining and microscopy-based evaluation of surviving cells and compared to parental exponentially growing ARPE-1 cells, which were exposed to MCOPPB as well. Control samples of senescent and parental cells, without MCOPPB treatment, were assessed, too. […]

[4] = animal studies, cited from earlier work
[5] = biological target: T1, NOP receptor in the mouse brain (Mus musculus, UniProt P35377); settings: 10 mg/kg, p.o.; ex vivo; cited from earlier work
T1 construct: from tissue; host or cells: mouse brain
T1 sequence (P35377 whole entry): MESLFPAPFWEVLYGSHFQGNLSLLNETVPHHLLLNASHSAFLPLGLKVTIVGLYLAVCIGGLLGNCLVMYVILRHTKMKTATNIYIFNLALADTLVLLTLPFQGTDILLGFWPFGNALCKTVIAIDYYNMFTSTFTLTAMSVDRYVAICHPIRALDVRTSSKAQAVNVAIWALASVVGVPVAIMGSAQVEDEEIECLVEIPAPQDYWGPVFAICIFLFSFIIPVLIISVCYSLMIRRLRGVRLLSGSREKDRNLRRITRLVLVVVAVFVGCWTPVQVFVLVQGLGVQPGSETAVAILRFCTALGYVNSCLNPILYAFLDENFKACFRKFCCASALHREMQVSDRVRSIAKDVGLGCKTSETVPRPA

senescent MRC5 cells = assay: toxicity towards senescent MRC5 cells (GIEMSA staining, microscopy); assay type: cell-based, human
Description: as §1
In human MRC-5 fibroblasts cells, senescence response - manifested by loss of proliferation, typical morphological changes and Senescence Associated Beta-galactosidase positivity - was induced by exposition to gamma radiation. The induction involved a single irradiation, total dose 15 Gy using Xstrahl RS 225 M RTG device set to 200KV 15mA (dose 3.8Gy/min). […] The number of surviving cells was evaluated immediately after the treatment either using GIMSA staining and microscopy-based evaluation of surviving cells and compared to parental exponentially growing MRC-5 cells.

mu opioid receptor = mu opioid receptor (Homo sapiens, UniProt P35372); settings: cited from earlier work
mu opioid receptor, sequence (P35372 whole entry, species assumed): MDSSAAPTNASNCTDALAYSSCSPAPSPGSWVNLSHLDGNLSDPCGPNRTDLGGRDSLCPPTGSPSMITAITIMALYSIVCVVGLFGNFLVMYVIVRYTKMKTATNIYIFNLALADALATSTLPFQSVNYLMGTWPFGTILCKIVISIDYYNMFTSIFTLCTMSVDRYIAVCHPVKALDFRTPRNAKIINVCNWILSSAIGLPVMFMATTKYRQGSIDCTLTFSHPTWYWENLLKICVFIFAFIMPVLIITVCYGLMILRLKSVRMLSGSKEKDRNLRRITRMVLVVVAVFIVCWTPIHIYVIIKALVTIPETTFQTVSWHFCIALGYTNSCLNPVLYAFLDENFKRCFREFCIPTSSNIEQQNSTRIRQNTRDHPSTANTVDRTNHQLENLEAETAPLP

[6] = p.o., cited from earlier work
[7] = oral dose of 10 mg/kg; cited from earlier work
senescent ARPE-1 cells = assay: toxicity towards senescent ARPE-1 cells (GIEMSA staining, microscopy); assay type: cell-based, human; settings: 10 µM, 48 hours; senescence induced by 200nM aphidicolin for three weeks; Figure 1
Description: as §1, §2

[8] = tested on: senescent cells (p16 positive cells); assay: elimination of senescent cells in p16 luciferase reporter mouse; assay type: in vivo
Description: Reporter GMO mouse with integrated luciferase reporter under p16 promoter allows monitoring of aging on the molecular level by an increase of luminescence signal due to the accumulation of senescent cells (this mouse model is described in details in: Cell. 2013 Jan 17;152(1-2):340-51). Application of senolytics targets the p16 positive cells and leads to decrease in the luminescent signal. Naturally aged reporter mice were treated by the MCOPPB compound and luminescence signal level was measured over time.

delta opioid receptor = delta opioid receptor (Homo sapiens, UniProt P41143); settings: cited from earlier work
delta opioid receptor, sequence (P41143 whole entry): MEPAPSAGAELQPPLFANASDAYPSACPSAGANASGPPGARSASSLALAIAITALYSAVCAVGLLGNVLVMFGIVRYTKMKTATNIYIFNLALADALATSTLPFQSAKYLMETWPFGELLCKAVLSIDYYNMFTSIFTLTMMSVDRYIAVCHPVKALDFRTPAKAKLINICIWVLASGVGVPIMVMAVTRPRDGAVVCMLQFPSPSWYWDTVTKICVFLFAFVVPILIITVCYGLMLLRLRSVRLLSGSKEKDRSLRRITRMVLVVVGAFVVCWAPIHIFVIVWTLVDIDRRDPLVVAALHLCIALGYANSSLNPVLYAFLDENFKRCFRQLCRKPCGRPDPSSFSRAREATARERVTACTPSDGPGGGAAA

[9] = dose not stated; cited from earlier work

SMILES: CC1(N2CCC(n3c([C@@H]4CCCNC4)nc4ccccc43)CC2)CCCCCCC1 [MCOPPB, 1-[1-(1-methylcyclooctyl)-4-piperidinyl]-2-[(3R)-3-piperidinyl]-1H-benzimidazole]
- tolerance by the animals ([1]; 10 mg/kg intraperitoneal): well tolerated
- tolerance by the animals ([1]; 20 mg/kg intraperitoneal): well tolerated
- memory ([2]; oral dose of 10 mg/kg): did not affect
- affinity for the kappa opioid receptor (kappa opioid receptor): weak affinity
- adverse effects on the parental cells [3]: no adverse effects
- sedative side effects ([4]; appear only at much higher doses than the effective anxiolytic dose range): only slight sedative side effects
- anxiolytic effects [4]: potent anxiolytic effects
- inhibition of memory or motor function [4]: no inhibition of memory or motor function
- signaling through the NOP receptor in the mouse brain [5]: inhibited signaling
- toxicity towards the senescent cells (senescent MRC5 cells; 5 µM, 48 hours, senescence induced by gamma radiation 15 Gy, Figure 3): selective toxicity
- toxicity towards the senescent cells (senescent MRC5 cells; 10µM for 48 hours (legend of Figure 3)): cell deterioration and cell loss
- affinity for the mu opioid receptor (mu opioid receptor): moderate affinity
- anxiolytic-like effects ([6]; 10 mg/kg): elicited anxiolytic-like effects
- anxiolytic effect after repeated administration ([6]; 10 mg/kg, repeated administration for 5 days): still effective as an anxiolytic agent
- shape of response curve [6]: bell-shaped response curve
- locomotor activity [7]: did not affect
- toxicity towards the senescent cells (senescent ARPE-1 cells): cell deterioration and cell loss; also recorded: selective toxicity
- whole body luminescent signals ([8]; 12-16 months old p16 reporter mice, treated for two weeks, versus vehicle, Figure 6): decrease of the luminescence signal
- whole body luminescent signal ([8]; 12 month old p16 reporter mouse, after three weeks of treatment, Figure 5): rapid decrease of the signal
- luminescence signal ([8]; naturally aged reporter mice, compared to controls, figures 5 and 6): decrease in the luminescence signal
- binding at the delta opioid receptor (delta opioid receptor): negligible binding

SMILES: CN1C(=O)CN=C(c2ccccc2)c2cc(Cl)ccc21 [diazepam, reference compound]
- ethanol-induced hypnosis [9]: enhanced ethanol-induced hypnosis
- memory ([2]; dose not stated): caused memory deficits
- anxiolytic-like effects ([6]; 3 mg/kg): elicited anxiolytic-like effects
